Our source for the EC50 and Ki values is US9365614B2, “IAP BIR domain binding compounds” (priority 2006, dated 2016).

One assay deals with PC3 cells. As to the kind of experiment: Survival assay (MTS), PC3. It is filed as cell-based. The settings on record: Homo sapiens, PC-3; in the presence of TRAIL (1-3 ng/ml). As for the experimental part:
(§1) Survival assays were performed on various cell lines including MDA-MB-231, SKOV3, H460, PC3, HCT-116, and SW480 cells. Cells were seeded in 96 well plates at a respective density of 5000 and 2000 cells per well and incubated at 37° C. in presence of 5% CO2 for 24 hours. Selected compounds were diluted into the media at various concentration ranging from 0.01 uM up to 100 uM. Diluted compounds were added onto the MDA-MB-231 cells. For the MDA-MB-231 SKOV3, H460, PC3, HCT-116, and SW480 cells, the compounds were added either alone or in presence of 1-3 ng/ml of TRAIL. After 72 hours cellular viability was evaluated by MTS based assays. A solution of [3-(4,5-dimethylthiazol-2-yl)-5-(3-carboxymethoxyphenyl)-2-(4-sulfophenyl)-2H-tetrazolium, inner salt; MTS] was added onto cells for a period of 1 to 4 hours. Upon incubation the amount of converted MTS was evaluated using a Tecan spectrophotometer set at 570 nm.

A further assay concerns HEY (ovarian) cells. As to the kind of experiment: Survival assay with TRAIL, HEY. It is filed as cell-based. The settings on record: in the presence of TRAIL (1-3 ng/mL). As for the experimental part:
as §1

In another assay the test system is MDA-MB231 cells. The assay is described as follows: Survival MTT assay, MDA-MB-231. The format is cell-based. The settings on record: Homo sapiens, 72 h. As for the experimental part:
(§2) One day prior the treatment with compound, 2000 to 4000 cells per well were plated in a tissue culture treated 96 well format dish with 100 ul of media and incubated at 37° C., 5% CO2. On the day of compound treatment, compounds were diluted with cell culture media to a working stock concentration of 2×. 100 uL of diluted compound were then added to each well. The treated plate was incubated for 72 h at 37° C., 5% CO2. Upon incubation, the cell viability was assessed as followed 20 uL of MTT reagent at 5 mg/ml were added per well to cell plate. The plate was incubated for 2 h at 37° C. in presence of 5% CO2. The supernatant was then removed from the plate and 100 uL of isopropanol were added. The absorbance was measured in a TECAN spectrophotometer at 570 nm. The percentage of viability was expressed in percentage of the signal obtained with non treated cells.
A general note: Tetrazolium assays rely on reduction of a dye to a coloured formazan, in cell work by metabolically active cells.

Another assay concerns OVCAR-3 (ovarian) cells. As to the kind of experiment: Survival assay with TRAIL, OVCAR-3. It is filed as cell-based. The settings on record: Homo sapiens, in the presence of TRAIL (1-3 ng/mL).
A further assay deals with HELA (cervical) cells. As to the kind of experiment: Survival assay with TRAIL, HELA. It is filed as cell-based. The settings on record: Homo sapiens, in the presence of TRAIL (1-3 ng/mL). Here is the method: as §1
The next assay relates to SKOV-3 cells. As to the kind of experiment: Survival MTT assay, SKOV-3. It is filed as cell-based. The settings on record: Homo sapiens, SK-OV-3, 72 h, read-out: EC50 against SKOV3. Here is the method: as §2
The target of assay [1] is T1, XIAP linker BIR2-BIR3-ring (GST-linker BIR 2 BIR3Ring) (Homo sapiens, UniProt P98170).
T1 construct: made in house; host or cells: E. coli DH5-alpha
As to the kind of experiment: Fluorescence polarization competition assay, BIR2-BIR3-ring, probe P2. The format is binding. The settings on record: BIR2-BIR3-ring FP assay. The text has this:
GST-linker BIR 2 BIR3Ring: XIAP coding sequence from amino acids 93-497 cloned into PGex4T1 via BamH1 and XhoI. Amino acids 93-497 were amplified from full length XIAP in pGex4t3, using the primers: […] (SEQ ID NO: 7) and GCTGCATGTGTGTCAGAGG (SEQ ID NO: 8), using standard PCR conditions. The PCR fragment was TA cloned into pCR-2.1 (invitrogen). Linker BIR 2 BIR 3Ring was subcloned into pGex4T1 by BamHI/XhoI digestion. The plasmid was transformed into E. coli DH5a for use in protein expression and purification.
For all assays, the fluorescence and fluorescence-polarization was evaluated using a Tecan Polarion instrument with the excitation filter set at 485 nm and the emission filter set at 535 nm. […] Upon establishing these conditions, the compounds potency (IC50) and selectivity, was assessed in the presence of a fix defined-amount of target protein and fluorescent probe and a 10 point serial dilution of the selected compounds. […] Auto-fluorescence for each compound was first assessed by performing a reading of the compound/BSA solution alone. Then 25 uL of the fluorescein probe diluted into 50 mM MES containing 0.05 mg/ml BSA were added and a reading to detect quenching of fluorescein signal done. […]
The ki of various compounds in the BIR2-BIR3-ring FP assay, using probe P2, was determined as described above.

A further assay deals with HCT116 (colon) cells. As to the kind of experiment: Survival assay with TRAIL, HCT116. It is filed as cell-based. The settings on record: Homo sapiens, HCT-116; in the presence of TRAIL (1-3 ng/mL). As for the experimental part:
as §1

The next assay deals with H460 (lung) cells. As to the kind of experiment: Survival assay with TRAIL, H460. It is filed as cell-based. The settings on record: Homo sapiens, NCI-H460; in the presence of TRAIL (1-3 ng/mL). Here is the method:
MDA-MD-231 (breast) and H460 (lung) cancer cells were cultured in RPMI1640 media supplemented with 10% FBS and 100 units/mL of Penicillin and Steptomycin.
as §1

T1 sequence (P98170 93-497): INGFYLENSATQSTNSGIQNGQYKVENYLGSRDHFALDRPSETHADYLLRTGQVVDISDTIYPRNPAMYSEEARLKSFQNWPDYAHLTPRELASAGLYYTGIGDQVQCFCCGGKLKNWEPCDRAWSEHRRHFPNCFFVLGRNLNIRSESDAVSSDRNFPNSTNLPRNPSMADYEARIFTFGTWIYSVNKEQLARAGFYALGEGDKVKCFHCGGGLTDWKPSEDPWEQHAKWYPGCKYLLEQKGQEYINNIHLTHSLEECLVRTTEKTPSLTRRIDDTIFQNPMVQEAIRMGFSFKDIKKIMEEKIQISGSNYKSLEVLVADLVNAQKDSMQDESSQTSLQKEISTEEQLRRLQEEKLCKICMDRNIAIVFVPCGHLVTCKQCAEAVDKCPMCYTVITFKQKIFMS

For orientation: EC50 means the concentration at which the effect is half-maximal. As a reminder, the Ki is the dissociation constant of the complex between target and ligand, obtained from inhibition or displacement. Take `CN[C@@H](C)C(=O)N[C@H](C(=O)N1C[C@@H](NC(=O)c2ccc(C(=O)N[C@H]3C[C@@H](C(=O)N[C@@H]4CCCc5ccccc54)N(C(=O)[C@@H](NC(=O)[C@H](C)NC)C(C)(C)C)C3)cc2)C[C@H]1C(=O)N[C@@H]1CCCc2ccccc21)C(C)(C)C` [Compound 3]: the EC50 is less than 1000 nM in the assay with PC3 cells; less than 1000 nM with HEY (ovarian) cells; less than 50 nM with MDA-MB231 cells; less than 1000 nM in the assay with OVCAR-3 (ovarian) cells; less than 1000 nM in the assay on HELA (cervical) cells; 1 nM with SKOV-3 cells. The EC50 in the assay on HCT116 (colon) cells and in the assay with H460 (lung) cells was less than 1000 nM each time. This compound gave a Ki in assay [1] of less than 100 nM.
